According to the NIST ThermoML archive (doi:10.1016/j.jct.2010.08.010):
Numbers after ± are expanded uncertainties.

Conditions: Liquid, Buoyancy - hydrostatic balance with magnetic suspension - one sinker

Cc1ccccc1 [toluene]
Conditions | mass density [kg/m3]
333.15 K, 9960.3 kPa | 838.314 ± 0.2
333.15 K, 12120 kPa | 840.218 ± 0.2
333.15 K, 14111 kPa | 841.938 ± 0.2
333.15 K, 15857 kPa | 843.417 ± 0.2
333.15 K, 18129 kPa | 845.312 ± 0.2
333.15 K, 19860 kPa | 846.724 ± 0.2
333.15 K, 22144 kPa | 848.558 ± 0.2
333.15 K, 24050 kPa | 850.059 ± 0.2
333.15 K, 25886 kPa | 851.479 ± 0.2
333.15 K, 28037 kPa | 853.128 ± 0.2
333.15 K, 29895 kPa | 854.529 ± 0.2
353.15 K, 100.22 kPa | 809.674 ± 0.19
353.15 K, 1169.9 kPa | 810.881 ± 0.19
353.15 K, 2003.6 kPa | 811.814 ± 0.19
353.15 K, 4142.5 kPa | 814.153 ± 0.19
353.15 K, 6005.5 kPa | 816.142 ± 0.19
353.15 K, 8141.3 kPa | 818.365 ± 0.19
353.15 K, 10004 kPa | 820.255 ± 0.19
353.15 K, 12008 kPa | 822.24 ± 0.19
353.15 K, 14198 kPa | 824.368 ± 0.19
353.15 K, 16142 kPa | 826.212 ± 0.19
353.15 K, 18101 kPa | 828.027 ± 0.19
353.15 K, 19917 kPa | 829.683 ± 0.19
353.15 K, 22138 kPa | 831.662 ± 0.19
353.15 K, 24034 kPa | 833.323 ± 0.19
353.15 K, 26059 kPa | 835.06 ± 0.2
353.15 K, 28105 kPa | 836.785 ± 0.2
353.15 K, 29954 kPa | 838.316 ± 0.2
373.15 K, 1259.9 kPa | 791.299 ± 0.18
373.15 K, 2065.8 kPa | 792.34 ± 0.18
373.15 K, 3870.7 kPa | 794.611 ± 0.18
373.15 K, 6198.3 kPa | 797.456 ± 0.19
373.15 K, 8095.9 kPa | 799.709 ± 0.19
373.15 K, 9917.3 kPa | 801.809 ± 0.19
373.15 K, 12114 kPa | 804.274 ± 0.19
373.15 K, 13934 kPa | 806.263 ± 0.19
373.15 K, 16020 kPa | 808.493 ± 0.19
373.15 K, 18023 kPa | 810.573 ± 0.19
373.15 K, 19927 kPa | 812.508 ± 0.19
373.15 K, 22108 kPa | 814.677 ± 0.19
373.15 K, 23970 kPa | 816.486 ± 0.19
373.15 K, 25950 kPa | 818.372 ± 0.19
373.15 K, 27874 kPa | 820.167 ± 0.19
373.15 K, 29907 kPa | 822.029 ± 0.19
393.15 K, 1097.4 kPa | 770.672 ± 0.18
393.15 K, 1998.7 kPa | 772.03 ± 0.18
393.15 K, 4084.6 kPa | 775.078 ± 0.18
393.15 K, 6214.8 kPa | 778.084 ± 0.18
393.15 K, 8059.3 kPa | 780.589 ± 0.18
393.15 K, 9988.4 kPa | 783.137 ± 0.18
393.15 K, 12134 kPa | 785.871 ± 0.18
393.15 K, 14051 kPa | 788.257 ± 0.18
393.15 K, 16078 kPa | 790.683 ± 0.18
393.15 K, 18012 kPa | 792.945 ± 0.18
393.15 K, 19811 kPa | 794.994 ± 0.18
393.15 K, 22110 kPa | 797.55 ± 0.19
393.15 K, 23923 kPa | 799.514 ± 0.19
393.15 K, 25870 kPa | 801.576 ± 0.19
393.15 K, 27974 kPa | 803.747 ± 0.19
393.15 K, 29891 kPa | 805.692 ± 0.19
413.15 K, 1099.1 kPa | 749.389 ± 0.18
413.15 K, 1960.8 kPa | 750.924 ± 0.18
413.15 K, 4038.3 kPa | 754.503 ± 0.18
413.15 K, 6026.6 kPa | 757.773 ± 0.18
413.15 K, 8189.1 kPa | 761.18 ± 0.18
413.15 K, 9852 kPa | 763.702 ± 0.18
413.15 K, 12117 kPa | 767.016 ± 0.18
413.15 K, 14168 kPa | 769.904 ± 0.18
413.15 K, 16108 kPa | 772.544 ± 0.18
413.15 K, 18095 kPa | 775.165 ± 0.18
413.15 K, 20104 kPa | 777.733 ± 0.18
413.15 K, 22152 kPa | 780.275 ± 0.18
413.15 K, 24009 kPa | 782.518 ± 0.18
413.15 K, 25996 kPa | 784.857 ± 0.18
413.15 K, 27793 kPa | 786.922 ± 0.18
413.15 K, 29815 kPa | 789.193 ± 0.18
433.15 K, 1101.8 kPa | 726.984 ± 0.17
433.15 K, 1976.7 kPa | 728.858 ± 0.17
433.15 K, 4084.4 kPa | 733.177 ± 0.17
433.15 K, 6154.5 kPa | 737.18 ± 0.17
433.15 K, 8078.7 kPa | 740.731 ± 0.17
433.15 K, 9952.6 kPa | 744.032 ± 0.17
433.15 K, 11980 kPa | 747.451 ± 0.17
433.15 K, 13969 kPa | 750.677 ± 0.18
433.15 K, 16091 kPa | 753.964 ± 0.18
433.15 K, 17961 kPa | 756.765 ± 0.18
433.15 K, 19890 kPa | 759.561 ± 0.18
433.15 K, 22082 kPa | 762.624 ± 0.18
433.15 K, 24002 kPa | 765.215 ± 0.18
433.15 K, 26049 kPa | 767.899 ± 0.18
433.15 K, 27836 kPa | 770.185 ± 0.18
433.15 K, 29993 kPa | 772.844 ± 0.18
453.15 K, 1107.5 kPa | 703.102 ± 0.17
453.15 K, 2037.8 kPa | 705.548 ± 0.17
453.15 K, 4185.3 kPa | 710.874 ± 0.17
453.15 K, 6060.4 kPa | 715.218 ± 0.17
453.15 K, 8005.2 kPa | 719.474 ± 0.17
453.15 K, 9870.3 kPa | 723.328 ± 0.17
453.15 K, 12115 kPa | 727.721 ± 0.17
453.15 K, 14139 kPa | 731.482 ± 0.17
453.15 K, 16027 kPa | 734.835 ± 0.17
453.15 K, 17928 kPa | 738.09 ± 0.17
453.15 K, 20153 kPa | 741.727 ± 0.17
453.15 K, 22071 kPa | 744.756 ± 0.17
453.15 K, 24057 kPa | 747.767 ± 0.17
453.15 K, 26029 kPa | 750.661 ± 0.17
453.15 K, 27966 kPa | 753.404 ± 0.18
453.15 K, 29817 kPa | 755.955 ± 0.18
473.15 K, 1104.4 kPa | 677.2 ± 0.16
473.15 K, 2031.3 kPa | 680.289 ± 0.16
473.15 K, 4033.8 kPa | 686.456 ± 0.16
473.15 K, 6024.4 kPa | 692.111 ± 0.16
473.15 K, 7930.8 kPa | 697.122 ± 0.16
473.15 K, 10107 kPa | 702.459 ± 0.16
473.15 K, 11931 kPa | 706.639 ± 0.17
473.15 K, 13959 kPa | 711.045 ± 0.17
473.15 K, 16004 kPa | 715.254 ± 0.17
473.15 K, 17878 kPa | 718.918 ± 0.17
473.15 K, 19844 kPa | 722.599 ± 0.17
473.15 K, 22088 kPa | 726.587 ± 0.17
473.15 K, 24074 kPa | 729.989 ± 0.17
473.15 K, 26038 kPa | 733.203 ± 0.17
473.15 K, 27840 kPa | 736.071 ± 0.17
473.15 K, 29806 kPa | 739.091 ± 0.17
